Measurements: patent US10519154B2, “7-substituted 1-pyridyl-naphthyridine-3-carboxylic acid amides and use thereof” (Bayer Pharma Aktiengesellschaft, priority 2016, dated 2019)

Biological target: T1, human M2 receptor (Homo sapiens, UniProt P08172)
T1 sequence (P08172 1-466): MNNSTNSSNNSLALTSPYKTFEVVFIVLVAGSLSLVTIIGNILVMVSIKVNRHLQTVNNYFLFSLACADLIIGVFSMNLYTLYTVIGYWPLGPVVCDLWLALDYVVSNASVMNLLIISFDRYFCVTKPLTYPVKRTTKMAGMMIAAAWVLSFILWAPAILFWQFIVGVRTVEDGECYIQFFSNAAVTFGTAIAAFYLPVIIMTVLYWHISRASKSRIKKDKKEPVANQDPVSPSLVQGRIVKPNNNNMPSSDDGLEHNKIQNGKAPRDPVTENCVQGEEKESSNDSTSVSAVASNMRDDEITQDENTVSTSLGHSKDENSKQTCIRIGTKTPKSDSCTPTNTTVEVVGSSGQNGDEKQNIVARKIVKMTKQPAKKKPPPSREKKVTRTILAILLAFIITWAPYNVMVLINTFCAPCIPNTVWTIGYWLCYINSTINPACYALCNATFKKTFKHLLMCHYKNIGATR
Experiment: Functional M2-GIRK1/4 activation test: allosteric potency (EC50) and efficiency
Settings: for EC50: Receptor activity EC50, CHO-DUKX-M2-GIRK cells, acetylcholine at EC20, in some cases mean of two or more determinations; for Emax: read-out: Efficiency, boosting of the acetylcholine effect at EC20 acetylcholine concentration; for Emax / Efficiency: CHO-DUKX-M2-GIRK cells; for Efficiency: boosting of the acetylcholine effect at EC20 acetylcholine concentration

SMILES | EC50 [nM] | Emax [%] | Efficiency [%]
CC(C)(C)[C@@H](NC(=O)c1cn(-c2ncc(F)cc2F)c2nc(N3CCCN(CCO)C3=O)ccc2c1=O)C(F)(F)F [Example 127, 1-(3,5-Difluoropyridin-2-yl)-7-[3-(2-hydroxyethyl)-2-oxotetrahydropyrimidin-1(2H)-yl]-4-oxo-N-[(2R)-1,1,1-trifluoro-3,3-dimethylbutan-2-yl]-1,4-dihydro-1,8-naphthyridine-3-carboxamide] | 50 | 96 | –
O=C(N[C@H](C1CC1)C(F)(F)F)c1cn(-c2ncc(F)cc2F)c2nc(N3CCCN(CCO)C3=O)ccc2c1=O [Example 122, N-[(1R)-1-Cyclopropyl-2,2,2-trifluoroethyl]-1-(3,5-difluoropyridin-2-yl)-7-[3-(2-hydroxyethyl)-2-oxotetrahydropyrimidin-1(2H)-yl]-4-oxo-1,4-dihydro-1,8-naphthyridine-3-carboxamide] | 220 | 92 | –
O=C(N[C@H](C1CC1)C(F)(F)F)c1cn(-c2ncccc2F)c2nc(N3CC4CC4(O)C3)ccc2c1=O (mixture of isomers) [Example 135, N-[(1R)-1-Cyclopropyl-2,2,2-trifluoroethyl]-1-(3-fluoropyridin-2-yl)-7-[(1S)-1-hydroxy-3-azabicyclo[3.1.0]hex-3-yl]-4-oxo-1,4-dihydro-1,8-naphthyridine-3-carboxamide] | 97 | 100 | –
CC[C@@H](NC(=O)c1cn(-c2ncccc2Cl)c2nc(N3CC4CC4(O)C3)ccc2c1=O)C(F)(F)F (mixture of isomers) [Example 47, 1-(3-Chloropyridin-2-yl)-7-[1-hydroxy-3-azabicyclo[3.1.0]hex-3-yl]-4-oxo-N-[(2R)-1,1,1-trifluorobutan-2-yl]-1,4-dihydro-1,8-naphthyridine-3-carboxamide] | 640 | 89 | –
O=C(NC(C(F)(F)F)C(F)(F)F)c1cn(-c2ncc(F)cc2F)c2nc(N3CCC(CO)(CO)CC3)ccc2c1=O [Example 186, 7-[4,4-Bis(hydroxymethyl)piperidin-1-yl]-1-(3,5-difluoropyridin-2-yl)-N-(1,1,1,3,3,3-hexafluoropropan-2-yl)-4-oxo-1,4-dihydro-1,8-naphthyridine-3-carboxamide] | 110 | 100 | –
CC(C)C(NC(=O)c1cn(-c2ncc(F)cc2F)c2nc(N3CCNC3=O)ccc2c1=O)C(F)(F)F (racemic) [Example 169, 1-(3,5-Difluoropyridin-2-yl)-4-oxo-7-(2-oxoimidazolidin-1-yl)-N-[1,1,1-trifluoro-3-methylbutan-2-yl]-1,4-dihydro-1,8-naphthyridine-3-carboxamide] | 120 | 97.5 | –
CC[C@@H](NC(=O)c1cn(-c2ncc(F)cc2F)c2nc(N3CCCCC3=O)ccc2c1=O)C(F)(F)F [Example 34, 1-(3,5-Difluoropyridin-2-yl)-4-oxo-7-(2-oxopiperidin-1-yl)-N-[(2R)-1,1,1-trifluorobutan-2-yl]-1,4-dihydro-1,8-naphthyridine-3-carboxamide] | 880 | 82 | –
O=C(Nc1c(Cl)cccc1Cl)c1cn(-c2ncc(F)cc2F)c2nc(N3C[C@H](O)[C@@H](O)C3)ccc2c1=O [Example 68, N-(2,6-Dichlorophenyl)-1-(3,5-difluoropyridin-2-yl)-7-[(3S,4S)-3,4-dihydroxypyrrolidin-1-yl]-4-oxo-1,4-dihydro-1,8-naphthyridine-3-carboxamide] | 195 | 96 | –
O=C(NC(C(F)(F)F)C(F)(F)F)c1cn(-c2ncc(F)cc2F)c2nc(N3CC4CC4(O)C3)ccc2c1=O (racemic) [Example 57, 1-(3,5-Difluoropyridin-2-yl)-N-(1,1,1,3,3,3-hexafluoropropan-2-yl)-7-[1-hydroxy-3-azabicyclo[3.1.0]hex-3-yl]-4-oxo-1,4-dihydro-1,8-naphthyridine-3-carboxamide] | 10 | 94 | –
CCC(COC(F)(F)F)NC(=O)c1cn(-c2ncc(F)cc2F)c2nc(N3C[C@@H](C)NC3=O)ccc2c1=O (stereo partly drawn) [Example 141, 1-(3,5-Difluoropyridin-2-yl)-7-[(4R)-4-methyl-2-oxoimidazolidin-1-yl]-4-oxo-N-[1-(trifluoromethoxy)butan-2-yl]-1,4-dihydro-1,8-naphthyridine-3-carboxamide] | 18 | 95 | –
CC(C)(NC(=O)c1cn(-c2ncc(F)cc2F)c2nc(N3CC4(COC4)C3)ccc2c1=O)C(F)(F)C(F)(F)F [Example 182, 1-(3,5-Difluoropyridin-2-yl)-7-(2-oxa-6-azaspiro[3.3]hept-6-yl)-4-oxo-N-(3,3,4,4,4-pentafluoro-2-methylbutan-2-yl)-1,4-dihydro-1,8-naphthyridine-3-carboxamide] | 410 | 100 | –
CC(C)C[C@@H](NC(=O)c1cn(-c2ncc(F)cc2F)c2nc(N3CCNC3=O)ccc2c1=O)C(F)(F)F [Example 156, 1-(3,5-Difluoropyridin-2-yl)-4-oxo-7-(2-oxoimidazolidin-1-yl)-N-[-(2R)-1,1,1-trifluoro-4-methylpentan-2-yl]-1,4-dihydro-1,8-naphthyridine-3-carboxamide] | 36 | 100 | –
CC(NC(=O)c1cn(-c2ncc(F)cc2F)c2nc(N3C[C@@H](O)[C@H](O)C3)ccc2c1=O)C(F)(F)C(F)(F)F (single isomer, unassigned) [Example 89] | 275 | 98 | –
CC[C@@H](NC(=O)c1cn(-c2ncc(F)cc2F)c2nc(N3C[C@@H](O)[C@@H](O)C3)ccc2c1=O)C(F)(F)F [Example 41, 1-(3,5-Difluoropyridin-2-yl)-7-[(3R,4S)-3,4-dihydroxypyrrolidin-1-yl]-4-oxo-N-[(2R)-1,1,1-trifluorobutan-2-yl]-1,4-dihydro-1,8-naphthyridine-3-carboxamide] | 330 | 100 | –

Second part, the compound after the results:

EC50 [nM] | Emax [%] | Efficiency [%] | SMILES
20 | 94.5 | – | O=C(NC(c1c(F)cccc1F)C(F)(F)F)c1cn(-c2ncc(F)cc2F)c2nc(N3C[C@@H](O)CC3=O)ccc2c1=O (stereo partly drawn) [Example 9, N-[1-(2,6-Difluorophenyl)-2,2,2-trifluoroethyl]-1-(3,5-difluoropyridin-2-yl)-7-[(4S)-4-hydroxy-2-oxopyrrolidin-1-yl]-4-oxo-1,4-dihydro-1,8-naphthyridine-3-carboxamide]
35 | 94 | – | CC(NC(=O)c1cn(-c2ncc(F)cc2F)c2nc(N3C[C@@H](O)CC3=O)ccc2c1=O)C(F)(F)C(F)(F)F (mixture of isomers) [Example 76, 1-(3,5-Difluoropyridin-2-yl)-7-[(4S)-4-hydroxy-2-oxopyrrolidin-1-yl]-4-oxo-N-[3,3,4,4,4-pentafluorobutan-2-yl]-1,4-dihydro-1,8-naphthyridine-3-carboxamide]
230 | 100 | – | O=C(N[C@H](C1CC1)C(F)(F)F)c1cn(-c2ncccc2F)c2nc(N3C[C@@H](O)CC3=O)ccc2c1=O [Example 139, N-[(1R)-1-Cyclopropyl-2,2,2-trifluoroethyl]-1-(3-fluoropyridin-2-yl)-7-[(4S)-4-hydroxy-2-oxopyrrolidin-1-yl]-4-oxo-1,4-dihydro-1,8-naphthyridine-3-carboxamide]
70 | 100 | – | CC(NC(=O)c1cn(-c2ncc(F)cc2F)c2nc(N3CCNC3=O)ccc2c1=O)C(F)(F)C(F)(F)F (racemic) [Example 161, 1-(3,5-Difluoropyridin-2-yl)-4-oxo-7-(2-oxoimidazolidin-1-yl)-N-[3,3,4,4,4-pentafluorobutan-2-yl]-1,4-dihydro-1,8-naphthyridine-3-carboxamide]
24 | 96 | – | CC(NC(=O)c1cn(-c2ncc(F)cc2F)c2nc(N3CCNC3=O)ccc2c1=O)C(F)(F)C(F)(F)F (single isomer, unassigned) [Example 162, 1-(3,5-Difluoropyridin-2-yl)-4-oxo-7-(2-oxoimidazolidin-1-yl)-N-[3,3,4,4,4-pentafluorobutan-2-yl]-1,4-dihydro-1,8-naphthyridine-3-carboxamide]
165 | – | 91.50 | CC1C(=O)N(c2ccc3c(=O)c(C(=O)N[C@@H](C4CC4)C(F)(F)F)cn(-c4ncc(F)cc4F)c3n2)CC1O (single isomer, unassigned) [Example 106]
85 | – | 99.00 | O=C(NC(c1ccccc1Cl)C(F)(F)F)c1cn(-c2ncc(F)cc2F)c2nc(N3C[C@@H](O)[C@H](O)C3)ccc2c1=O (single isomer, unassigned) [Example 85]
1060 | 89 | – | O=C(NC12CC(F)(C1)C2)c1cn(-c2ncc(F)cc2F)c2nc(N3C[C@@H](O)CC3=O)ccc2c1=O [Example 102, 1-(3,5-Difluoropyridin-2-yl)-N-(3-fluorobicyclo[1.1.1]pent-1-yl)-7-[(4S)-4-hydroxy-2-oxopyrrolidin-1-yl]-4-oxo-1,4-dihydro-1,8-naphthyridine-3-carboxamide]
525 | 98 | – | CC1C(=O)N(c2ccc3c(=O)c(C(=O)N[C@@H](C)C(F)(F)F)cn(-c4ncc(F)cc4F)c3n2)CC1O (mixture of isomers) [Example 112, 1-(3,5-Difluoropyridin-2-yl)-7-[4-hydroxy-3-methyl-2-oxopyrrolidin-1-yl]-4-oxo-N-[(2S)-1,1,1-trifluoropropan-2-yl]-1,4-dihydro-1,8-naphthyridine-3-carboxamide]
